This note sets out measurements from patent US9670227B2, “Thienopyrimidine derivatives, a process for their preparation and pharmaceutical compositions containing them” (LES LABORATOIRES SERVIER, priority 2013, dated 2017).

Mcl-1 protein, sequence (Q07820 whole entry): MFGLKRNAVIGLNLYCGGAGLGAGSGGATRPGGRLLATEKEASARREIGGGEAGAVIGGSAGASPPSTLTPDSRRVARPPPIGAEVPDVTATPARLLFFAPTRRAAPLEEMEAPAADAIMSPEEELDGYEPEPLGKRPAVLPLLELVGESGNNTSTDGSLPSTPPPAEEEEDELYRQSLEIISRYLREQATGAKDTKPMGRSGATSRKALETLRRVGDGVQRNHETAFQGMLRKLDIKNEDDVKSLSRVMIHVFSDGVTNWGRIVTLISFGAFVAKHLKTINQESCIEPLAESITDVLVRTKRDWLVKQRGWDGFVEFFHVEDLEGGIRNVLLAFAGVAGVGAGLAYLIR

One assay deals with Mcl-1 protein (UniProtKB primary accession number: Q07820) (Homo sapiens, UniProt Q07820). Nature of the assay: Inhibition of Mcl-1 by fluorescence polarisation, Method 1. The class given is binding. Conditions: fluorescence polarisation test; Method 1, or Method 2 where the value is underlined (underlining not visible); read-out: IC50 (M) Mcl-1 FP. On the procedure:
The relative binding potency of each compound was determined via Fluorescence Polarisation (FP).
An 11 point serial dilution of each compound was prepared in DMSO and 2 μl transferred into flat bottomed, low binding, 384-well plate (final DMSO concentration 5%). 38 μl of buffer (10 mM 4-(2-hydroxyethyl)-1-piperazineethanesulfonic acid [HEPES], 150 mM NaCl, 0.05% Tween 20, pH 7.4), containing the Fluorescein labelled ligand (final concentration 1 nM) and Mcl-1 protein (final concentration 5 nM) was then added.
In the case of `CCOC(=O)C(Cc1ccccc1OCc1ccnc(-c2ccccc2OCCOC)n1)Oc1ncnc2sc(-c3ccc(F)cc3)c(-c3ccc(OCCN4CCN(C)CC4)c(Cl)c3C)c12` [Example 796, ethyl (2R)-2-{[(5Sa)-5-{3-chloro-2-methyl-4-[2-(4-methylpiperazin-1-yl)ethoxy]phenyl}-6-(4-fluorophenyl)thieno[2,3-d]pyrimidin-4-yl]oxy}-3-[2-({2-[2-(2-methoxyethoxy)phenyl]pyrimidin-4-yl}methoxy)phenyl]propanoate], the IC50 stood at 5.16e-07 M.

The same assay, now with this note: fluorescence polarisation test; Method 2 values are underlined in the patent (underlining not visible here); read-out: IC50 (M) Mcl-1 FP.
For `COc1ncc(-c2ccsc2)c(COc2ccccc2CC(Oc2ncnc3sc(-c4ccc(F)cc4)c(-c4ccc(OCCN5CCN(C)CC5)c(Cl)c4C)c23)C(=O)O)n1` [Example 100, (2R)-2-{[(5Sa)-5-{3-chloro-2-methyl-4-[2-(4-methylpiperazin-1-yl)ethoxy]phenyl}-6-(4-fluorophenyl)thieno[2,3-d]pyrimidin-4-yl]oxy}-3-(2-{[2-methoxy-5-(thiophen-3-yl)pyrimidin-4-yl]methoxy}phenyl)propanoic acid], the concentration for half-maximal inhibition (IC50) came out at 1.2e-08 M.

Take `Cc1c(-c2c(-c3ccco3)sc3ncnc(O[C@@H](C(=O)O)[C@@H](O)c4ccccc4)c23)ccc(OCCN2CCN(C)CC2)c1Cl` (single isomer, unassigned) [Example 343]: the IC50 was determined as 2.5e-07 M.

For `COCCc1nccc(COc2ccccc2CC(Oc2ncnc3sc(-c4ccc(F)cc4)c(-c4ccc(OCCN5CCN(C)CC5)c(Cl)c4C)c23)C(=O)O)n1` [Example 44, (2R)-2-{[(5Sa)-5-{3-chloro-2-methyl-4-[2-(4-methylpiperazin-1-yl)ethoxy]phenyl}-6-(4-fluorophenyl)thieno[2,3-d]pyrimidin-4-yl]oxy}-3-(2-{[2-(2-methoxyethyl)pyrimidin-4-yl]methoxy}phenyl)propanoic acid], the IC50 amounted to 4.8e-09 M.

Turning to `COc1ccccc1CC(Oc1ncnc2sc(-c3ccco3)c(-c3ccc(OC(=O)CN4CCN(C)CC4)c(Cl)c3C)c12)C(=O)O` [Example 332, (2R)-2-{[(5Sa)-5-(3-chloro-2-methyl-4-{[(4-methylpiperazin-1-yl)acetyl]oxy}phenyl)-6-(furan-2-yl)thieno[2,3-d]pyrimidin-4-yl]oxy}-3-(2-methoxyphenyl)propanoic acid], the IC50 stood at 1.3e-08 M.

Staying with this assay, now noted: fluorescence polarisation; Method 1, or Method 2; read-out: IC50 (M) Mcl-1 FP.
Turning to `CCc1sc2ncnc(OC(Cc3ccccc3)C(=O)O)c2c1-c1cc2ccoc2c(Cl)c1C` [Example 443, (2R)-2-{[(5Sa)-5-(7-chloro-6-methyl-1-benzofuran-5-yl)-6-ethylthieno[2,3-d]pyrimidin-4-yl]oxy}-3-phenylpropanoic acid], the IC50 came out at 1.8e-08 M.

On to `Cc1c(-c2c(-c3ccc(F)cc3)sc3ncnc(OC(Cc4ccccc4)C(=O)O)c23)ccc(OCCN2CCN(C)CC2)c1Cl` [Example 498, (2R)-2-{[(5Sa)-5-{3-chloro-2-methyl-4-[2-(4-methylpiperazin-1-yl)ethoxy]phenyl}-6-(4-fluorophenyl)thieno[2,3-d]pyrimidin-4-yl]oxy}-3-phenylpropanoic acid], for which the IC50 is 7.4e-08 M.

For `CCc1sc2ncnc(OC(Cc3ccccc3)C(=O)O)c2c1-c1ccc(OCCOC)c(Cl)c1C` [Example 424, (2R)-2-({(5Sa)-5-[3-chloro-4-(2-methoxyethoxy)-2-methylphenyl]-6-ethylthieno[2,3-d]pyrimidin-4-yl}oxy)-3-phenylpropanoic acid], the IC50 was determined as 9.6e-08 M.

Turning to `Cc1c(-c2c(-c3ccc(F)cc3)sc3ncnc(OC(Cc4ccccc4OCc4ccnc(-c5ccccc5F)n4)C(=O)O)c23)ccc(OCCN(C)C2CC2)c1Cl` [Example 748, (2R)-2-{[(5Sa)-5-(3-chloro-4-{2-[cyclopropyl(methyl)amino]ethoxy}-2-methylphenyl)-6-(4-fluorophenyl)thieno[2,3-d]pyrimidin-4-yl]oxy}-3-(2-{[2-(2-fluorophenyl)pyrimidin-4-yl]methoxy}phenyl)propanoic acid], the IC50 turned out to be 1.21e-08 M.

`CCc1sc2ncnc(OC(Cc3ccccc3)C(=O)O)c2c1-c1ccc(OCCN(C)C)cc1C` [Example 410, (2R)-2-[((5Ra)-5-{4-[2-(dimethylamino)ethoxy]-2-methylphenyl}-6-ethylthieno[2,3-d]pyrimidin-4-yl)oxy]-3-phenylpropanoic acid]: the IC50 amounted to 2.2e-06 M.

Take `Cc1c(-c2c(C#CC3CC3)sc3ncnc(OC(Cc4ccccc4)C(=O)O)c23)ccc(OCCN2CCN(C)CC2)c1Cl` [Example 520, (2R)-2-{[(5Sa)-5-{3-chloro-2-methyl-4-[2-(4-methylpiperazin-1-yl)ethoxy]phenyl}-6-(cyclopropylethynyl)thieno[2,3-d]pyrimidin-4-yl]oxy}-3-phenylpropanoic acid]: the IC50 came to 4.1e-08 M.

Consider `Cc1c(-c2c(-c3cnn(C)c3)sc3ncnc(OC(Cc4ccccc4)C(=O)O)c23)ccc(OCCN2CCOCC2)c1Cl` [Example 712, (2R)-2-{[(5Sa)-5-{3-chloro-2-methyl-4-[2-(morpholin-4-yl)ethoxy]phenyl}-6-(1-methyl-1H-pyrazol-4-yl)thieno[2,3-d]pyrimidin-4-yl]oxy}-3-phenylpropanoic acid], for which the IC50 turned out to be 4.1e-07 M.

On to `Cc1c(-c2c(-c3cnn(C)c3)sc3ncnc(OC(Cc4ccccc4)C(=O)O)c23)ccc(OCCN2CCN(C)CC2)c1Cl` [Example 513, (2R)-2-{[(5Sa)-5-{3-chloro-2-methyl-4-[2-(4-methylpiperazin-1-yl)ethoxy]phenyl}-6-(1-methyl-1H-pyrazol-4-yl)thieno[2,3-d]pyrimidin-4-yl]oxy}-3-phenylpropanoic acid], for which the IC50 is 3.7e-07 M.

`CCc1sc2ncnc(OC(Cc3ccccc3F)C(=O)O)c2c1-c1ccc(OCCN2CCN(C)CC2)c(Cl)c1C` [Example 464, (2S)-2-[((5Ra)-5-{3-chloro-2-methyl-4-[2-(4-methylpiperazin-1-yl)ethoxy]phenyl}-6-ethylthieno[2,3-d]pyrimidin-4-yl)oxy]-3-(2-fluorophenyl)propanoic acid]: the IC50 worked out at 3.9e-07 M.

As to “(2R)-2-{[(5Sa)-5-(3-chloro-2-methylphenyl)-6-ethylthieno[2,3-d]pyrimidin-4-yl]oxy}-3-phenylpropanoic acid and (2S)-2-{[(5Ra)-5-(3-chloro-2-methylphenyl)-6-ethylthieno[2,3-d]pyrimidin-4-yl]oxy}-3-phenylpropanoic acid [Example 449]”, the 50% inhibitory concentration (IC50) worked out at 2.8e-08 M.

For the compound `Cc1c(-c2c(-c3ccc(F)cc3)sc3ncnc(OC(Cc4ccccc4OCC(F)(F)F)C(=O)O)c23)ccc(OCC2CCCN2C)c1Cl` (single isomer, unassigned) [Example 659, (2R)-2-{[(5Sa)-5-{3-chloro-2-methyl-4-[((2R or S)-1-methylpyrrolidin-2-yl)methoxy]phenyl}-6-(4-fluorophenyl)thieno[2,3-d]pyrimidin-4-yl]oxy}-3-[2-(2,2,2-trifluoroethoxy)phenyl]propanoic acid], the IC50 came to 2.2e-08 M.

`CCc1sc2ncnc(OC(Cc3ccccc3)C(=O)O)c2c1-c1ccc(OCCOCCOC)c(Cl)c1C` [Example 425, (2R)-2-[((5Sa)-5-{3-chloro-4-[2-(2-methoxyethoxy)ethoxy]-2-methylphenyl}-6-ethylthieno[2,3-d]pyrimidin-4-yl)oxy]-3-phenylpropanoic acid]: the IC50 is 9.6e-09 M.

On to `Cc1c(-c2c(-c3cccs3)sc3ncnc(OC(Cc4ccccc4)C(=O)O)c23)ccc(OCCN2CCN(C)CC2)c1Cl` [Example 505, (2R)-2-{[(5Sa)-5-{3-chloro-2-methyl-4-[2-(4-methylpiperazin-1-yl)ethoxy]phenyl}-6-(thiophen-2-yl)thieno[2,3-d]pyrimidin-4-yl]oxy}-3-phenylpropanoic acid], for which the IC50 was 5.8e-08 M.

The same assay, now with this note: partial inhibitors; @ 10 uM test compound.
In the case of `CCOC(=O)[C@@H](Cc1ccccc1OC)Oc1ncnc2sc(-c3ccsc3)c(-c3ccc(OCCN4CCN(C)CC4)c(Cl)c3C)c12` [Example 633, ethyl (2R)-2-{[(5Sa)-5-{3-chloro-2-methyl-4-[2-(4-methylpiperazin-1-yl)ethoxy]phenyl}-6-(thiophen-3-yl)thieno[2,3-d]pyrimidin-4-yl]oxy}-3-(2-methoxyphenyl)propanoate], the “percentage fluorescence polarisation inhibition, Mcl-1 FP” value is 40.2 % @ 10 uM.

On to `CCOC(=O)[C@@H](Cc1ccccc1OC[C@H]1CCCO1)Oc1ncnc2sc(-c3ccc(F)cc3)c(-c3ccc(OCCN4CCN(C)CC4)c(Cl)c3C)c12` [Example 628, ethyl (2R)-2-{[(5Sa)-5-{3-chloro-2-methyl-4-[2-(4-methylpiperazin-1-yl)ethoxy]phenyl}-6-(4-fluorophenyl)thieno[2,3-d]pyrimidin-4-yl]oxy}-3-{2-[(2R)-tetrahydrofuran-2-ylmethoxy]phenyl}propanoate], for which the “percentage fluorescence polarisation inhibition, Mcl-1 FP” value worked out at 33.2% @ 10 uM.

`CCOC(=O)[C@@H](Cc1ccccc1OCC(F)(F)F)Oc1ncnc2sc(-c3ccc(F)cc3)c(-c3ccc(OCCN(C)C)c(Cl)c3C)c12` [Example 634, ethyl (2R)-2-{[(5Sa)-5-{3-chloro-4-[2-(dimethylamino)ethoxy]-2-methylphenyl}-6-(4-fluorophenyl)thieno[2,3-d]pyrimidin-4-yl]oxy}-3-[2-(2,2,2-trifluoroethoxy)phenyl]propanoate]: the “percentage fluorescence polarisation inhibition, Mcl-1 FP” value is 10.7% @ 10 uM.

Still in this assay, the particulars now being: test compound at 10 uM; Method 1, or Method 2 where the value is underlined (underlining not visible).
Consider `COCCOC(=O)[C@@H](Cc1ccccc1OCc1ccnn1C(C)(C)C)Oc1ncnc2sc(-c3cccc(F)c3F)c(-c3ccc(OCCN(C)C)c(Cl)c3C)c12` [Example 805, 2-methoxyethyl (2R)-3-{2-[(1-tert-butyl-1H-pyrazol-5-yl)methoxy]phenyl}-2-{[(5Sa)-5-{3-chloro-4-[2-(dimethylamino)ethoxy]-2-methylphenyl}-6-(2,3-difluorophenyl)thieno[2,3-d]pyrimidin-4-yl]oxy}propanoate], for which the “percentage fluorescence polarisation inhibition (Mcl-1 FP), partial inhibitors” value was found to be 53.5% @ 10 uM.
